Reference: paper PMC8518382, “Identification of a Bromodomain‐like Region in 15‐Lipoxygenase‐1 Explains Its Nuclear Localization” (Angewandte Chemie (International Ed. in English), 2021)

Legend:
12-LOX = target: T1, 12-LOX (Homo sapiens, UniProt P18054); assay: Sandwich ELISA of Labelox B biotinylation in A549 cell lysate, 12-LOX capture; assay type: biochemical; settings: HRP-streptavidin detection, read-out: EC50 of labeling
T1 construct: the endogenous LOXs were captured on an anti‐LOX antibody precoated 96‐well plate; endogenous in cells; host or cells: A549 cell lysate
T1 sequence (P18054 1-663): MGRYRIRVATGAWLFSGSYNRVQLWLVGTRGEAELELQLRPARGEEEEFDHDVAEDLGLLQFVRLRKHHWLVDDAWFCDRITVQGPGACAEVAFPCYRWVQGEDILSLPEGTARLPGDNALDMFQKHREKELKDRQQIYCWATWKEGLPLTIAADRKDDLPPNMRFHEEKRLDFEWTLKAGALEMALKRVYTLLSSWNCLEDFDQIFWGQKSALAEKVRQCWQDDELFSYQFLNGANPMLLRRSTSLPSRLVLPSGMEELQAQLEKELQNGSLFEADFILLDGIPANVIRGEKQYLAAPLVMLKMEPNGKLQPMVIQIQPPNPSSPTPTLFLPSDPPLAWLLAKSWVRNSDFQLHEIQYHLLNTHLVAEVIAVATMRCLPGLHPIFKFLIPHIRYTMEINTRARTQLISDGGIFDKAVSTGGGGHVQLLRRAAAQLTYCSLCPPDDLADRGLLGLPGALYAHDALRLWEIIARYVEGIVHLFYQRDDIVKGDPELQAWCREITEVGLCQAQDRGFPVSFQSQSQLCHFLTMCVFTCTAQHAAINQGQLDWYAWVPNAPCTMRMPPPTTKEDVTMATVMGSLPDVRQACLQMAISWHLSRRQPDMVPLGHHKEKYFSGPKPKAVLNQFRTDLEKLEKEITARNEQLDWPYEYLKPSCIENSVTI
Protocol: (§1) Labelox B efficiently labels endogenous LOXs. Lipoxygenase labeling by Labelox B was investigated using cell‐based assays. As a first step, labeling efficiency was estimated in intact RAW 264.7 macrophage cells that were treated with Labelox B in concentrations ranging between 1 μM and 100 μM with incubation times between 0.5 h and 6 h. […] As a next step, a sandwich ELISA assay was established in order to find proof that probe Labelox B is indeed labeling proteins with lipoxygenase enzyme activity. Towards this aim, A549 cell lysates were treated with sub‐micromolar to micromolar concentrations of Labelox B. Subsequently, the endogenous LOXs were captured on an anti‐LOX antibody precoated 96‐well plate followed by detection of Labelox B mediated biotinylation using HRP‐conjugated streptavidin. […] Furthermore, probe Labelox B enabled visualization of localized LOX activity in living cells (Figure 2 c). […] The fluorescence intensity increased with increasing doses of Labelox B and labeling was observed throughout the cells in the cytoplasm and the nucleus of A549.
(§2) Figure 2 Labelox B labels endogenous LOXs in a dose‐ and time‐dependent manner. a, b) Western blot analysis of Labelox B labeled LOXs in intact RAW 264.7 for indicated doses and time points. […] The pictures were captured by a Leica DM4000b fluorescence microscope.

15-LOX-1 = target: T2, 15-LOX-1 (Homo sapiens, UniProt P16050); assay: Sandwich ELISA of Labelox B biotinylation in A549 cell lysate, 15-LOX-1 capture; assay type: biochemical; design: the endogenous LOXs were captured on an anti‐LOX antibody precoated 96‐well plate; endogenous in cells; host or cells: A549 cell lysate; settings: HRP-streptavidin detection, read-out: EC50 of labeling
T2 sequence (P16050 1-662): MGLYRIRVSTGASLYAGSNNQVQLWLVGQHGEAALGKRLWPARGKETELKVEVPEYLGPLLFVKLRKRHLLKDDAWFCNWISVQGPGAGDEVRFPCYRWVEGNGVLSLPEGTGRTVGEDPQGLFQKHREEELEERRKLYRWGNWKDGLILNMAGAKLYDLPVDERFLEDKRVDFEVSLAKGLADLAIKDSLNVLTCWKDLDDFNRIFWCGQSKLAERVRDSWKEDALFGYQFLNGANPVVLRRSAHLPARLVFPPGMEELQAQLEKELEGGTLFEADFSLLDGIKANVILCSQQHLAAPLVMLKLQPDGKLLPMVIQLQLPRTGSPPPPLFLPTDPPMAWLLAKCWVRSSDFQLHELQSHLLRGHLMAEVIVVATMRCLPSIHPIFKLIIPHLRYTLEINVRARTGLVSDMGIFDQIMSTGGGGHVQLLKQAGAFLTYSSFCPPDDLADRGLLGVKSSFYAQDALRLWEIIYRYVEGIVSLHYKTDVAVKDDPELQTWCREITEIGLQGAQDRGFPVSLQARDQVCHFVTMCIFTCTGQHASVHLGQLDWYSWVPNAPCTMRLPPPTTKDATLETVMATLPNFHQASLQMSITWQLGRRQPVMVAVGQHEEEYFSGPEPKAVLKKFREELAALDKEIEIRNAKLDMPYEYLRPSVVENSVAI
Protocol: as §1, §2

For `CCCCCC#CCC#CCOC(=O)CCCC[C@@H]1SC[C@@H]2NC(=O)N[C@@H]21` [Labelox B (3)], the EC50 (12-LOX) was roughly 3.5 µM and the EC50 (15-LOX-1) was roughly 3.5 µM.
